Read-outs that look alike come from different tables or passages of the source.
Key:
[1] = test system: mice (stretched attend postures); conditions: H. P. Kasermann, Psychopharmacology 1986, 89, 31-37; cited from earlier work
[2] = Bioavailability of co-administered peptide (salmon calcitonin) on nasal administration; type: in vivo; conditions: rhesus monkey
Experimental: Additionally, the compounds of the invention when administered, e.g. at a dose of from 0.01 to 10 mg/kg with a therapeutically effective dosage of another compound, e.g. a peptide, such as salmon calcitonin increases the absorption thereof.

[3] = test system: mice (approach-oriented behaviour); test: Approach-oriented behaviour in mice in stress-situations; type: in vivo, mouse; conditions: for approach-oriented social behaviours: food deprived mice under white light; for effect on promoting social interaction under stress related conditions: mouse, in vivo
Experimental: Trials have been carried out on the effects of the compounds of the invention on approach-oriented behaviour in mice. The compounds increase approach-oriented behaviour in stress-situations normally inhibitory to social responses. Thus situations involving unfamiliar surroundings, contact with foreign aggressive opponents, competition for food, were created under reversed lighting conditions whereby observations were performed during the darkphase. Under these conditions, untreated rodents exihibit high levels of flight, particularly depressive ambivalence and escape behaviour, but low levels of social behaviour involving approach activity.

[4] = test system: male OF-1 mice (social interactions and feeding); test: Competitive feeding, Study C; type: in vivo, mouse
Experimental: In this test 8 pairs of male OF-1 mice deprived of food for 6 hours are forced to compete over 6 minutes for a single food pellet. […]

[5] = Bioavailability and pharmacokinetic profile after nasal / oral administration; type: in vivo, mammals including rhesus monkeys and humans; conditions: plasma; ca. 5 to 10 minutes following nasal administration
Experimental: The bioavailability and pharmacokinetic profile of the compounds of the invention may be determined in conventional manner, e.g. in mammals including rhesus monkeys and humans. The concentrations of the compounds of the invention in the blood plasma after administration of from about 0.01 to about 10 mg/kg to each nostril, e.g. 7.5 mg in the case of compound E, locally to the nasal mucous membrane, e.g. as a spray, may be determined in conventional manner by e.g. radioimmunoassay or HPLC methods. The compounds of the invention are rapidly absorbed, e.g. over about 10 minutes.

[6] = test system: 5-HT3 receptors; conditions: rabbit heart; P. Donatsch et al., Br.j. Pharmacol. 1984, 81,348; cited from earlier work
[7] = test system: 5-HT3 receptors; conditions: rabbit vagus; P. Donatsch et al., Br.j. Pharmacol. 1984, 81,348; cited from earlier work
[8] = test system: mice (stretched attend postures); test: Stretched Attend Postures (SAP) (No conflict); type: in vivo, mouse; conditions: doses higher than 0.1 mg/kg
Experimental: Mice placed upon an unfamiliar elevated platform in a novel environment display characteristic stretched body postures called SAP's which signify amibivalence.
The compounds of the invention administered p.o. at a dose of from about 0.1 to about 10 mg/kg. 2 hours before the test reduce the duration of SAP when placed on the platform for 2 minutes under conditions where no other mice are present.

[9] = test system: healthy human volunteers; test: Tolerability in healthy human volunteers; type: in vivo; conditions: single doses
Excerpt: (§1) Toxicity and Tolerability studies may be effected in conventional manner with the compounds of the invention to determine the upper dosage.

[10] = 26 week toxicity study in the rat; conditions: in vivo, po, 26 weeks, read-out: no toxic effect (dose), rat
Excerpt: as §1
(§2) Toxicity studies may be effected for example in the rat and the dog over for example 26 weeks.

[11] = 26 week toxicity study in the dog; conditions: in vivo, po, 26 weeks, read-out: no toxic effect bowel (dose), dog
Excerpt: as §1, §2

[12] = test system: intruder mice (approach-oriented social activities); test: Intruder test, Study B (large cage); type: in vivo, mouse; conditions: for escape behaviour: single compounds: 1 microgram/kg, in general about 0.01 to about 100 microgram/kg i.p.
Experimental: Study A was modified using a large cage (59×38.5×20 cm) which allowed greater freedom of movement so that elements of defense could be separated more clearly from the approach-oriented social activities. The compounds of the invention were given i.p. at doses from about 0.01 to about 100 microgram/kg 45 minutes before the encounter.
Indruders received the drug. […] In this test at a dose of 1 microgram/kg compound E promoted 8 elements of approach oriented social activities by about 40 per cent. […] Compound H at the same dose promoted 3 elements of approach-oriented social activities by about 40 per cent.

[13] = test system: plasma corticosterone; test: Corticosterone levels (Endocrinological profile); type: in vivo, mouse; conditions: reduction at high, increase of basal levels at low doses
[14] = test system: intruder mice (social behaviour); test: Intruder test, Study A; type: in vivo, mouse; conditions: 1 mg/kg p.o., 1 hour before the encounter
Experimental: A foreign male mouse (intruder), placed for 6 minutes, into the cage of an isolated male is attacked and responds with defensive escape patterns collectively known as "flight". Flight and associated defensive activities over-ride the intruder's tendency to approach the attacker so that much of the behaviour includes social forms of ambivalence.
Intruders receiving oral doses of benzodiazepines show less of these defensive activities and more approach-oriented behaviour (A. K. Dixon Triangle 1982, 21, 95-105; M. Krisak, Br. J. Pharmacol 1975, 55, 141-150), e.g. investigation, aggression and sexual activity.
The compounds of the invention are administered 1 hour before the encounter per-orally at from about 0.1 to about 10 mg/kg. Groups of 8 mice pairs are used. The frequency and duration of social and non-social behaviour of the mice were recorded using ethological techniques.

[15] = test system: 5-HT3 receptors; conditions: guinea pig ileum; P. Donatsch et al., Br.j. Pharmacol. 1984, 81,348; cited from earlier work
[16] = 0.1 mg/kg p.o., 2 hours before the encounter

In the case of `O=C1CC2(CCCC2)CC(=O)N1CCCCN1CCN(c2ncccn2)CC1` [buspirone], the “incidence of SAP's” value [1] is listed as “reduce the incidence of SAP's”.
In the case of salmon calcitonin, the “bioavailability of salmon calcitonin (AUC up to 2 hours), with compound E” value ([2]; salmon calcitonin 100 IU + compound E 15 mg, half to each nostril) was 1.632 m IU/ml/hr/plasma and the “bioavailability of salmon calcitonin (AUC up to 2 hours), before increase by compound E” value ([2]; salmon calcitonin 100 IU nasal, without compound E) was 0.08 mIU/ml/hr.
With `CC(NC(C)(C)C)C(=O)c1cccc(Cl)c1` (stereo not shown) [bupropion] the approach-oriented social behaviours [3] was “increase approach-oriented social behaviours”, the “effect on promoting social interaction under stress related conditions” value [3] was “pronounced effect” and the “increase in mean frequency of social interactions” value ([4]; 2.5 mg/kg, competitive feeding experiment study c)) was 179 per cent.
For `CN1[C@@H]2CC[C@H]1C[C@@H](OC(=O)c1c[nH]c3ccccc13)C2` [compound E, Indol-3-yl carboxylic acid endo-8-methyl-8-aza-bicyclo-[3.2.1]oct-3-yl ester], the concentration at 10 min [5] is listed as 200 ng/mL, the “effect on promoting social interaction under stress related conditions” value [3] is listed as “pronounced effect” and the “antagonistic action against 5-HT3 receptors” value [6] is listed as “antagonistic action”. For the same compound, the “increase in mean frequency of social interactions” value ([4]; 0.01 mg/kg, competitive feeding experiment study c)) was 54 per cent, the “increase in duration of feeding” value [4, 16] was 55 per cent and the “increase in duration of social interactions relative to controls” value [4, 16] was 321 per cent. The “increase in frequency of feeding” value [4, 16] was 4 per cent, the “increase in frequency of social interactions relative to controls” value [4, 16] was 54% and the “antagonistic action against 5-HT3 receptors” value [7] was “antagonistic action”. For the same compound, the “effect on SAP at higher doses” value [8] was “the effect was less”, the “well tolerated single dose without relevant side effects” value [9] was “up to 150 mg” and the NOAEL at 4368 h [10] was 16 to 45 mg/kg/day. The NOAEL at 4368 h [11] was 5 to 20 mg/kg/day, the “promotion of 8 elements of approach oriented social activities” value ([12]; 1 microgram/kg i.p., 45 minutes before the encounter, 8 elements) was “about 40 per cent” and the escape behaviour [12] was “reduced escape behaviour”. For the same compound, the “corticosterone profile compared with diazepam” value [13] was “analogous to that observed with diazepam”, the “frequency of social inter-action” value ([14]; increased from ca 60) was ~80 and the “duration of social inter-action” value ([14]; increased from ca 90) was ~120 s. For the same compound, the “antagonistic action against 5-HT3 receptors” value [15] was “antagonistic action”.
With `CN(C)CCCN1c2ccccc2CCc2ccccc21` [impramine] the approach-oriented social behaviours [3] was “increase approach-oriented social behaviours”.
With `Cc1nccn1CC1CCc2c(c3ccccc3n2C)C1=O` (stereo not shown) [compound H, 1,2,3,9-tetrahydro-9-methyl-3-[(2-methyl-1H-imidazol-1-yl)methyl]-4H-carbazol-4-one] the “promotion of 3 elements of approach-oriented social activities” value ([12]; 1 microgram/kg i.p., 45 minutes before the encounter, 3 elements) was “about 40 per cent”, the cage exploratory behaviour ([12]; 1 microgram/kg i.p., indicative of a stimulant effect) was “increase cage exploratory behaviour” and the escape behaviour [12] was “effect on escape behaviour was less”.
For `CN1C(=O)CN=C(c2ccccc2)c2cc(Cl)ccc21` [diazepam], the ambivalent behaviour ([3]; reversed lighting, darkphase, stress-situations) was “reduce the ambivalent behaviour” and the “social behaviour / approach-oriented behaviour in stress-situations” value ([3]; reversed lighting, darkphase, stress-situations normally inhibitory to social responses) was “can increase social behaviour”.
